System: PCC 11801
Assay: MMS mutagenesis kill rate
Type: cell-based, Synechococcus elongatus sp. PCC 11801
Conditions: 1% (v/v) MMS for 90 seconds, quenched with 5% sodium thiosulfate
Protocol: Random mutagenesis was performed by modifying a previously described protocol (Deshpande et al. (2020), infra) with methylmethanesulfonate (MMS) and ultra-violet (UV) irradiation as the mutagens. Cells were prepared for random mutagenesis by pelleting exponentially growing cultures (OD ˜0.6-1) of PCC 11801 and resuspending in 1 mL of fresh BG-11M media.
For MMS mutagenesis, 1% (v/v) MMS (Sigma-Aldrich, St. Louis, Mo.) was added for 90 seconds, and the reaction was quenched by the addition of 5% (w/w) sodium thiosulfate solution to yield a ˜85-95% kill rate. For UV mutagenesis, the culture was subjected to 90 seconds of UV light to yield a kill rate of ˜90%.
The mutagenized cultures were incubated at 38° C. overnight in the dark before selection. To select for overproducers, the phenylalanine (Phe) analog 3-(2-thienyl)-dl-alanine (Sigma-Aldrich, St. Louis, Mo.) was applied to BG-11M agar plates in concentrations ranging from 0.5-2 mg/ml. The wild-type and mutagenized cultures were diluted and spread on BG-11M (to test kill rate) and BG-11M analog-containing plates, and were incubated at 38° C. until colonies appeared. Colonies (i.e. variant Synechococcus elongatus sp. strains) that successfully grew on analog selection plates were picked (e.g., selected) and re-streaked on selective plates for at least three rounds to enable complete segregation of mutations.

Structure (SMILES): COS(C)(=O)=O [MMS, methylmethanesulfonate]
- kill rate: 85-95%

Source: US20230013336A1, “SYNECHOCOCCUS ELONGATUS MUTANTS, VARIANTS AND USES THEREOF TO PRODUCE AN ESSENTIAL AMINO ACID” (Purdue Research Foundation, priority 2021, published 2023)
